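Where inhibition never reached the appropriate level, the endpoint shown equals the highest concentration tested. Otherwise, values were interpolated linearly from a five-concentration, 48-hour dose response in 96-well plates. The concentration for full growth arrest is given as TGI.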
Experiments:
Assay in all cases: DTP human tumour cell line panel, 48 h
786-0 renal = system: 786-0 renal
A498 renal = system: A498 renal
A549 NSCLC = system: A549 NSCLC
ACHN renal = system: ACHN renal
BT-549 breast = system: BT-549 breast
CAKI-1 renal = system: CAKI-1 renal
CCRF-CEM leukemia = system: CCRF-CEM leukemia
COLO 205 colon = system: COLO 205 colon
DU-145 prostate = system: DU-145 prostate
EKVX NSCLC = system: EKVX NSCLC
HCC-2998 colon = system: HCC-2998 colon
HCT-116 colon = system: HCT-116 colon
HCT-15 colon = system: HCT-15 colon
HL-60(TB) leukemia = system: HL-60(TB) leukemia
HOP-62 NSCLC = system: HOP-62 NSCLC
HOP-92 NSCLC = system: HOP-92 NSCLC
HS 578T breast = system: HS 578T breast
HT29 colon = system: HT29 colon
IGROV1 ovarian = system: IGROV1 ovarian
K-562 leukemia = system: K-562 leukemia
KM12 colon = system: KM12 colon
LOX IMVI melanoma = system: LOX IMVI melanoma
M14 melanoma = system: M14 melanoma
MALME-3M melanoma = system: MALME-3M melanoma
MCF7 breast = system: MCF7 breast
MDA-MB-231 breast = system: MDA-MB-231 breast
MDA-MB-435 = system: MDA-MB-435
MDA-N = system: MDA-N
MOLT-4 leukemia = system: MOLT-4 leukemia
NCI-H226 lung = system: NCI-H226 lung
NCI-H23 lung = system: NCI-H23 lung
NCI-H460 lung = system: NCI-H460 lung
NCI/ADR-RES ovarian = system: NCI/ADR-RES ovarian
OVCAR-3 ovarian = system: OVCAR-3 ovarian
OVCAR-4 ovarian = system: OVCAR-4 ovarian
OVCAR-5 ovarian = system: OVCAR-5 ovarian
OVCAR-8 ovarian = system: OVCAR-8 ovarian
PC-3 prostate = system: PC-3 prostate
RPMI-8226 leukemia = system: RPMI-8226 leukemia
RXF 393 renal = system: RXF 393 renal
SF-268 CNS = system: SF-268 CNS
SF-295 CNS = system: SF-295 CNS
SF-539 CNS = system: SF-539 CNS
SK-MEL-2 melanoma = system: SK-MEL-2 melanoma
SK-MEL-28 melanoma = system: SK-MEL-28 melanoma
SK-MEL-5 melanoma = system: SK-MEL-5 melanoma
SK-OV-3 ovarian = system: SK-OV-3 ovarian
SN12C renal = system: SN12C renal
SNB-19 CNS = system: SNB-19 CNS
SNB-75 CNS = system: SNB-75 CNS
SW-620 colon = system: SW-620 colon
T-47D breast = system: T-47D breast
TK-10 renal = system: TK-10 renal
U251 CNS = system: U251 CNS
UACC-257 melanoma = system: UACC-257 melanoma
UACC-62 melanoma = system: UACC-62 melanoma
UO-31 renal = system: UO-31 renal

Question: For CC1(c2ccc(Cl)s2)CC(c2ccc(Cl)s2)=C(C#N)C(=C(C#N)C#N)N1 (configuration not stated), which TGI (786-0 renal) is on record?
Answer: 40.6 µM

Question: What about the TGI (A498 renal) of the same compound?
Answer: 37.8 µM

Question: What about the TGI (A549 NSCLC) of the same compound?
Answer: 48.8 µM

Question: And the TGI (ACHN renal)?
Answer: 31.4 µM

Question: What about the TGI (BT-549 breast) of the same compound?
Answer: 45.7 µM

Question: What about the TGI (CAKI-1 renal) of the same compound?
Answer: 34.8 µM

Question: What about the TGI (CCRF-CEM leukemia) of the same compound?
Answer: > 100 µM

Question: And the TGI (COLO 205 colon)?
Answer: 61.1 µM

Question: What about the TGI (DU-145 prostate) of the same compound?
Answer: 30.6 µM

Question: And the TGI (EKVX NSCLC)?
Answer: 32.6 µM

Question: And the TGI (HCC-2998 colon)?
Answer: 34.5 µM

Question: And the TGI (HCT-116 colon)?
Answer: 34.2 µM

Question: And the TGI (HCT-15 colon)?
Answer: 35.4 µM

Question: What about the TGI (HL-60(TB) leukemia) of the same compound?
Answer: 40.1 µM

Question: What about the TGI (HOP-62 NSCLC) of the same compound?
Answer: 36 µM

Question: And the TGI (HOP-92 NSCLC)?
Answer: 38.8 µM

Question: And the TGI (HS 578T breast)?
Answer: 61.6 µM

Question: And the TGI (HT29 colon)?
Answer: 36.8 µM

Question: And the TGI (IGROV1 ovarian)?
Answer: 35.3 µM

Question: And the TGI (K-562 leukemia)?
Answer: > 100 µM

Question: And the TGI (KM12 colon)?
Answer: 36 µM

Question: And the TGI (LOX IMVI melanoma)?
Answer: 44.3 µM

Question: And the TGI (M14 melanoma)?
Answer: 36.4 µM

Question: What about the TGI (MALME-3M melanoma) of the same compound?
Answer: 43.1 µM

Question: And the TGI (MCF7 breast)?
Answer: 39.9 µM

Question: What about the TGI (MDA-MB-231 breast) of the same compound?
Answer: 47.1 µM

Question: What about the TGI (MDA-MB-435) of the same compound?
Answer: 35.1 µM

Question: And the TGI (MDA-N)?
Answer: 49.5 µM

Question: And the TGI (MOLT-4 leukemia)?
Answer: > 100 µM

Question: And the TGI (NCI-H226 lung)?
Answer: > 100 µM

Question: What about the TGI (NCI-H23 lung) of the same compound?
Answer: 42.2 µM

Question: And the TGI (NCI-H460 lung)?
Answer: 82.6 µM

Question: And the TGI (NCI/ADR-RES ovarian)?
Answer: 38.8 µM

Question: What about the TGI (OVCAR-3 ovarian) of the same compound?
Answer: 28.4 µM

Question: And the TGI (OVCAR-4 ovarian)?
Answer: 33.2 µM

Question: And the TGI (OVCAR-5 ovarian)?
Answer: 35.8 µM

Question: And the TGI (OVCAR-8 ovarian)?
Answer: 50.4 µM

Question: And the TGI (PC-3 prostate)?
Answer: 33.5 µM

Question: And the TGI (RPMI-8226 leukemia)?
Answer: > 100 µM

Question: What about the TGI (RXF 393 renal) of the same compound?
Answer: 33.7 µM

Question: And the TGI (SF-268 CNS)?
Answer: 48.9 µM

Question: And the TGI (SF-295 CNS)?
Answer: 29.8 µM

Question: What about the TGI (SF-539 CNS) of the same compound?
Answer: 68.7 µM

Question: What about the TGI (SK-MEL-2 melanoma) of the same compound?
Answer: 47.2 µM

Question: What about the TGI (SK-MEL-28 melanoma) of the same compound?
Answer: 50.5 µM

Question: What about the TGI (SK-MEL-5 melanoma) of the same compound?
Answer: 29.5 µM

Question: And the TGI (SK-OV-3 ovarian)?
Answer: 30.5 µM

Question: What about the TGI (SN12C renal) of the same compound?
Answer: 45.7 µM

Question: What about the TGI (SNB-19 CNS) of the same compound?
Answer: 44.2 µM

Question: What about the TGI (SNB-75 CNS) of the same compound?
Answer: 38.6 µM

Question: And the TGI (SW-620 colon)?
Answer: 52.4 µM

Question: And the TGI (T-47D breast)?
Answer: 46.7 µM

Question: What about the TGI (TK-10 renal) of the same compound?
Answer: 38.1 µM

Question: What about the TGI (U251 CNS) of the same compound?
Answer: 33.2 µM

Question: And the TGI (UACC-257 melanoma)?
Answer: 43.4 µM

Question: And the TGI (UACC-62 melanoma)?
Answer: 30.7 µM

Question: What about the TGI (UO-31 renal) of the same compound?
Answer: 34.5 µM
